A short description of assay [1]: Antiproliferative activity against human QGY7703 cells. The format is functional, cell-based. The following applies: QGY-7703.
Another assay concerns RAW264.7. Put plainly: Antiinflammatory activity in mouse RAW264.7 cells assessed as inhibition of LPS-induced NO release. The format is functional, cell-based.
The nature of assay [2]: Inhibition of TNF-alpha-induced NF-kappaB activity in human pNF-kappaB-luc-293 cells. The format is cell-based. The following applies: HEK293.
For another assay, the system named is LoVo. Put plainly: Antiproliferative activity against human LoVo cells. The format is functional, cell-based.

Converted amounts (≈) assume the structure as drawn.

A word on the IC50: it is the midpoint of a concentration-inhibition curve. Take `CC(C)(O)c1ccc2c(c1)C(=O)C[C@H]1[C@](C)(COC(=O)CCC(=O)O)CCC[C@]21C` [ABIESADINE R]: the half-maximal inhibitory concentration (IC50) in assay [1] is above 25 µg/mL; in the assay on RAW264.7, above 100 µg/mL; in assay [2] it was above 100 µg/mL; in the assay with LoVo, above 25 µg/mL.

On to `COC(=O)CCC(=O)OC[C@]1(C)CCC[C@]2(C)c3ccc(C(C)(C)O)cc3C(=O)C[C@@H]12` [ABIESADINE S], for which the concentration for half-maximal inhibition (IC50) is above 25 µg/mL in assay [1], 49 µg/mL (≈ 114 µM) in the assay with RAW264.7, above 100 µg/mL in assay [2] and above 25 µg/mL in the assay on LoVo.

Consider `CC(C)[C@]12C=C3CC[C@H]4[C@](C)(COC(=O)CCC(=O)O)CCC[C@]4(C)[C@@]3(CC1)OO2` [ABIESADINE W], for which the IC50 in assay [1] is above 25 µg/mL; in the assay with RAW264.7, above 100 µg/mL; in assay [2], above 100 µg/mL; in the assay with LoVo, above 25 µg/mL.

In the case of `C=C[C@@](C)(O)CCC1C(=C)CC[C@H]2[C@](C)(COC(=O)CCC(=O)O)CCC[C@]12C` (stereo not given in full) [ABIESADINE X], the IC50 in assay [1] was above 25 µg/mL; in the assay on RAW264.7 it was above 100 µg/mL; in assay [2] it was above 100 µg/mL; in the assay with LoVo it was above 25 µg/mL.

For the molecule `C=C[C@@](C)(O)CC[C@H]1C(=C)CC[C@H]2[C@](C)(COC(=O)CCC(=O)OC)CCC[C@]12C` [ABIESADINE Y], the IC50 is above 25 µg/mL in assay [1], 48.5 µg/mL (≈ 115 µM) in the assay with RAW264.7, 22.4 µg/mL (≈ 53.3 µM) in assay [2] and 10.6 µg/mL (≈ 25.2 µM) in the assay on LoVo.

With `CC(C)C1=CC2=CC[C@@H]3[C@](C)(CCC[C@@]3(C)C(=O)O)[C@H]2CC1` [ABIETIC ACID], the IC50 is above 25 µg/mL in assay [1], above 100 µg/mL in the assay with RAW264.7, above 100 µg/mL in assay [2] and above 25 µg/mL in the assay on LoVo.

As for `CC(C)c1ccc2c(c1)CC[C@H]1[C@](C)(C(=O)O)CCC[C@]21C` [DEHYDROABIETIC ACID], the half-maximal inhibitory concentration (IC50) was above 25 µg/mL in assay [1], 42.7 µg/mL (≈ 142 µM) in the assay on RAW264.7, above 100 µg/mL in assay [2] and above 25 µg/mL in the assay with LoVo.

Take `C=C[C@@](C)(O)CC[C@H]1C(=C)CC[C@H]2C(C)(C)CCC[C@]12C` [MANOOL]: the IC50 in assay [1] was above 25 µg/mL; in the assay with RAW264.7, 11 µg/mL (≈ 37.9 µM); in assay [2], above 100 µg/mL; with LoVo, above 25 µg/mL.

`CC(C)c1ccc2c(c1)CC[C@H]1[C@](C)(CO)CCC[C@]21C` [POMIFERIN A]: the IC50 was above 25 µg/mL in assay [1], above 100 µg/mL with RAW264.7, above 100 µg/mL in assay [2] and 9.2 µg/mL (≈ 32.1 µM) in the assay with LoVo.

`C=C[C@@](C)(O)CCC1C(=C)CC[C@H]2[C@](C)(CO)CCC[C@]12C` (stereo not given in full) [TORREFEROL]: the IC50 was above 25 µg/mL in assay [1], above 100 µg/mL in the assay with RAW264.7, above 100 µg/mL in assay [2] and 24.3 µg/mL (≈ 79.3 µM) with LoVo.

These data come from ChEMBL document CHEMBL1157733, “Isolation, structure, and bioactivities of abiesadines A-Y, 25 new diterpenes from Abies georgei Orr” (Bioorg Med Chem, 2010).
